Measured values reported in PubChem BioAssay (NCI).
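1) Cells in 96-well plates. 2) Compound, 48 h, 5 concentrations. 3) Linear interpolation between surrounding doses. 4) Unreached endpoint = highest concentration. At the GI50, growth is halved. TGI marks complete inhibition of growth.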

Columns and labels:
Experiment in all cases: DTP human tumour cell line panel, 48 h
[1] = test system: 786-0 renal
[2] = test system: A549 NSCLC
[3] = test system: ACHN renal
[4] = test system: BT-549 breast
[5] = test system: CAKI-1 renal
[6] = test system: CCRF-CEM leukemia
[7] = test system: COLO 205 colon
[8] = test system: DU-145 prostate
[9] = test system: EKVX NSCLC
[10] = test system: HCC-2998 colon
[11] = test system: HCT-116 colon
[12] = test system: HCT-15 colon
[13] = test system: HL-60(TB) leukemia
[14] = test system: HOP-62 NSCLC
[15] = test system: HOP-92 NSCLC
[16] = test system: HS 578T breast
[17] = test system: HT29 colon
[18] = test system: IGROV1 ovarian
[19] = test system: K-562 leukemia
[20] = test system: KM12 colon
[21] = test system: LOX IMVI melanoma
[22] = test system: MALME-3M melanoma
[23] = test system: MCF7 breast
[24] = test system: MDA-MB-435
[25] = test system: MOLT-4 leukemia
[26] = test system: NCI-H23 lung
[27] = test system: NCI-H460 lung
[28] = test system: NCI-H522 lung
[29] = test system: NCI/ADR-RES ovarian
[30] = test system: OVCAR-3 ovarian
[31] = test system: OVCAR-4 ovarian
[32] = test system: OVCAR-5 ovarian
[33] = test system: OVCAR-8 ovarian
[34] = test system: PC-3 prostate
[35] = test system: RPMI-8226 leukemia
[36] = test system: RXF 393 renal
[37] = test system: SF-268 CNS
[38] = test system: SF-295 CNS
[39] = test system: SF-539 CNS
[40] = test system: SK-MEL-2 melanoma
[41] = test system: SK-MEL-28 melanoma
[42] = test system: SK-MEL-5 melanoma
[43] = test system: SK-OV-3 ovarian
[44] = test system: SNB-19 CNS
[45] = test system: SNB-75 CNS
[46] = test system: SW-620 colon
[47] = test system: T-47D breast
[48] = test system: TK-10 renal
[49] = test system: U251 CNS
[50] = test system: UACC-257 melanoma
[51] = test system: UO-31 renal
[52] = test system: M14 melanoma
[53] = test system: MDA-MB-231 breast
[54] = test system: NCI-H226 lung
[55] = test system: SN12C renal
[56] = test system: UACC-62 melanoma
[57] = test system: A498 renal

N#Cc1c(-c2ccccc2)n([O-])c2ccccc2[n+]1=O
GI50 [1]: 35.7 µM
TGI [1]: > 100 µM
GI50 [2]: 22 µM
TGI [2]: 50.9 µM
GI50 [3]: 19.9 µM
TGI [3]: 37.5 µM
GI50 [4]: 25.1 µM
TGI [4]: 57.3 µM
GI50 [5]: 20.1 µM
TGI [5]: 34.7 µM
GI50 [6]: 22.2 µM
TGI [6]: 46.1 µM
GI50 [7]: 35.5 µM
TGI [7]: > 100 µM
GI50 [8]: 22.4 µM
TGI [8]: 51.2 µM
GI50 [9]: 28.2 µM
TGI [9]: 58 µM
GI50 [10]: 17 µM
TGI [10]: 34 µM
GI50 [11]: 19.5 µM
TGI [11]: 34.8 µM
GI50 [12]: 21.4 µM
TGI [12]: 48.3 µM
GI50 [13]: 25.2 µM
TGI [13]: 47.9 µM
GI50 [14]: 20.2 µM
TGI [14]: 38.7 µM
GI50 [15]: 21.8 µM
TGI [15]: 45.4 µM
GI50 [16]: 26.8 µM
TGI [16]: 70 µM
GI50 [17]: 38.8 µM
TGI [17]: > 100 µM
GI50 [18]: 36.9 µM
TGI [18]: > 100 µM
GI50 [19]: 20.6 µM
TGI [19]: 37.1 µM
GI50 [20]: 16.2 µM
TGI [20]: 32.2 µM
GI50 [21]: 18.7 µM
TGI [21]: 35.1 µM
GI50 [22]: 21.3 µM
TGI [22]: 37.1 µM
GI50 [23]: 33.2 µM
TGI [23]: > 100 µM
GI50 [24]: 19.7 µM
TGI [24]: 36.3 µM
GI50 [25]: 10.2 µM
TGI [25]: 27.2 µM
GI50 [26]: 20.3 µM
TGI [26]: 40.3 µM
GI50 [27]: 20.7 µM
TGI [27]: 45.9 µM
GI50 [28]: 26.9 µM
TGI [28]: 75.1 µM
GI50 [29]: 21.1 µM
TGI [29]: 44.8 µM
GI50 [30]: 22.3 µM
TGI [30]: 42.9 µM
GI50 [31]: 28.8 µM
TGI [31]: 81.8 µM
GI50 [32]: 28.1 µM
TGI [32]: 74.2 µM
GI50 [33]: 32.5 µM
TGI [33]: 91.3 µM
GI50 [34]: 26.4 µM
TGI [34]: 79.8 µM
GI50 [35]: 21.1 µM
TGI [35]: 42.2 µM
GI50 [36]: 42.8 µM
TGI [36]: > 100 µM
GI50 [37]: 24.8 µM
TGI [37]: 63.9 µM
GI50 [38]: 24.4 µM
TGI [38]: 56.4 µM
GI50 [39]: 32.1 µM
TGI [39]: 60.8 µM
GI50 [40]: 62.6 µM
TGI [40]: > 100 µM
GI50 [41]: 65.7 µM
TGI [41]: > 100 µM
GI50 [42]: 20.1 µM
TGI [42]: 38.5 µM
GI50 [43]: 51.7 µM
TGI [43]: > 100 µM
GI50 [44]: 67.1 µM
TGI [44]: > 100 µM
GI50 [45]: 41.1 µM
TGI [45]: > 100 µM
GI50 [46]: 35.3 µM
TGI [46]: > 100 µM
GI50 [47]: 30.1 µM
TGI [47]: 83.7 µM
GI50 [48]: 29.4 µM
TGI [48]: 68.4 µM
GI50 [49]: 24.7 µM
TGI [49]: 60.7 µM
GI50 [50]: 21.4 µM
TGI [50]: 40.1 µM
GI50 [51]: 33.9 µM
TGI [51]: > 100 µM

O=C(NNC(=O)C1CCN(S(=O)(=O)c2ccc(-c3ccccc3)cc2)CC1)c1ccc(C(F)(F)F)cc1
GI50 [1]: 7.21 µM
TGI [1]: 34.1 µM
GI50 [2]: > 50 µM
TGI [2]: > 50 µM
GI50 [3]: > 50 µM
TGI [3]: > 50 µM
GI50 [4]: 44.1 µM
TGI [4]: > 50 µM
GI50 [5]: > 50 µM
TGI [5]: > 50 µM
GI50 [6]: > 50 µM
TGI [6]: > 50 µM
GI50 [7]: > 50 µM
TGI [7]: > 50 µM
GI50 [9]: > 50 µM
TGI [9]: > 50 µM
GI50 [10]: 20.6 µM
TGI [10]: > 50 µM
GI50 [11]: 4.77 µM
TGI [11]: 13.2 µM
GI50 [12]: > 50 µM
TGI [12]: > 50 µM
GI50 [13]: > 50 µM
TGI [13]: > 50 µM
GI50 [14]: 5.46 µM
TGI [14]: 16.5 µM
GI50 [15]: 2.89 µM
TGI [15]: > 50 µM
GI50 [16]: 38.3 µM
TGI [16]: > 50 µM
GI50 [17]: > 50 µM
TGI [17]: > 50 µM
GI50 [18]: > 50 µM
TGI [18]: > 50 µM
GI50 [19]: > 50 µM
TGI [19]: > 50 µM
GI50 [20]: > 50 µM
TGI [20]: > 50 µM
GI50 [21]: > 50 µM
TGI [21]: > 50 µM
GI50 [52]: 15.9 µM
TGI [52]: > 50 µM
GI50 [23]: > 50 µM
TGI [23]: > 50 µM
GI50 [53]: 1.58 µM
TGI [53]: 34.9 µM
GI50 [24]: > 50 µM
TGI [24]: > 50 µM
GI50 [54]: 14.6 µM
TGI [54]: > 50 µM
GI50 [26]: 14.1 µM
TGI [26]: > 50 µM
GI50 [27]: > 50 µM
TGI [27]: > 50 µM
GI50 [28]: > 50 µM
TGI [28]: > 50 µM
GI50 [29]: > 50 µM
TGI [29]: > 50 µM
GI50 [30]: > 50 µM
TGI [30]: > 50 µM
GI50 [32]: > 50 µM
TGI [32]: > 50 µM
GI50 [33]: 22 µM
TGI [33]: > 50 µM
GI50 [34]: > 50 µM
TGI [34]: > 50 µM
GI50 [36]: 20.3 µM
TGI [36]: > 50 µM
GI50 [37]: > 50 µM
TGI [37]: > 50 µM
GI50 [38]: > 50 µM
TGI [38]: > 50 µM
GI50 [40]: > 50 µM
TGI [40]: > 50 µM
GI50 [41]: > 50 µM
TGI [41]: > 50 µM
GI50 [42]: > 50 µM
TGI [42]: > 50 µM
GI50 [55]: 21.4 µM
TGI [55]: > 50 µM
GI50 [44]: 15.4 µM
TGI [44]: > 50 µM
GI50 [46]: > 50 µM
TGI [46]: > 50 µM
GI50 [47]: 3.99 µM
TGI [47]: > 50 µM
GI50 [48]: 20.8 µM
TGI [48]: > 50 µM
GI50 [49]: 11.8 µM
TGI [49]: > 50 µM
GI50 [50]: > 50 µM
TGI [50]: > 50 µM
GI50 [56]: > 50 µM
TGI [56]: > 50 µM
GI50 [51]: > 50 µM
TGI [51]: > 50 µM

O=C(CSCC(=O)N/N=C/c1cccc(C(F)(F)F)c1)N/N=C/c1cccc(C(F)(F)F)c1
TGI [57]: > 100 µM
TGI [3]: > 100 µM
TGI [4]: > 100 µM
TGI [5]: > 100 µM
TGI [8]: > 100 µM
TGI [9]: > 100 µM
TGI [10]: > 100 µM
TGI [12]: > 100 µM
TGI [13]: > 100 µM
TGI [14]: > 100 µM
TGI [15]: > 100 µM
TGI [16]: > 100 µM
TGI [17]: > 100 µM
TGI [18]: > 100 µM
TGI [19]: > 100 µM
TGI [21]: > 100 µM
TGI [52]: > 100 µM
TGI [22]: > 100 µM
TGI [23]: > 100 µM
TGI [24]: > 100 µM
TGI [54]: > 100 µM
TGI [26]: > 100 µM
TGI [28]: > 100 µM
TGI [29]: > 100 µM
TGI [32]: > 100 µM
TGI [34]: > 100 µM
TGI [36]: > 100 µM
TGI [37]: > 100 µM
TGI [38]: > 100 µM
TGI [39]: > 100 µM
TGI [40]: > 100 µM
TGI [41]: > 100 µM
TGI [42]: > 100 µM
TGI [43]: > 100 µM
TGI [44]: > 100 µM
TGI [45]: > 100 µM
TGI [47]: > 100 µM
TGI [48]: > 100 µM
TGI [50]: > 100 µM
TGI [56]: > 100 µM
TGI [51]: > 100 µM
